Reference: patent US9770026B2, “Substituted pyrimidine compound and uses thereof” (Shenyang Sinochem Agrochemicals R&D Co., Ltd., priority 2012, dated 2017)

Tests used:
armyworm = assay: bioactivity test against armyworm, airbrush spray; assay type: in vivo
Procedure: (§1) Compounds were dissolved in mixed solvent (acetone:methanol=1:1), and diluted to required concentration with water containing 0.1% of tween 80.
(§2) Diamond back moth, armyworm, peach aphid and carmine spider mite were used as targets and the method of spraying by airbrush was used for determination of insecticidal biassays.
The method of spraying by airbrush: The corn leaves were made into plates of 2 cm diameter by use of punch. A test solution (0.5 ml) was sprayed by airbrush at the pressure of 0.7 kg/cm^2 to both sides of every plate. 10 Second instar larvae were put into the petri-dishes after the leaf disc air-dried and 3 replicates were set for each treatment. Then the insects were maintained in observation room (25 °C, 60˜70% R.H.). Scores were conducted and mortalities were calculated after 72 h.

corn rust = assay: protectant activity in vivo against corn rust; details: for control effect against corn rust (%): protectant activity
carmine spider mite = assay: bioactivity test against carmine spider mite, airbrush spray; assay type: in vivo; details: for control against carmine spider mite: mortality after 72 hrs
Procedure: as §1, §2
The method: Broadbean shoots with two true leaves in pot were taken, the healthy adults of carmine spider mite were inoculated to the leaves. The adults were counted and then sprayed with airbrush at the pressure of 0.7 kg/cm^2 and at dose of 0.5 ml. 3 replicates were set for each treatment. And then they were maintained in standard observation room. Scores were conducted and mortalities were calculated after 72 hrs.

[1] = tested on: Green peach aphids (Myzus Persicae Sulzer); assay: bioactivity test against green peach aphid, airbrush foliar spray; assay type: in vivo; details: death rate after 48 hrs
Procedure: as §1, §2
Method: Filter papers were put in culture dishes (Diameter=6 cm), and water was dripped on filter papers for preserving moisture. Green peach aphids (Myzus Persicae Sulzer) were maintained on cabbage. Leaves (Diameter=3 cm) of approximately 15-30 aphids were put in the culture dishes. Bioactivity tests were used the method of Airbrush Foliar Spray, pressure=10 psi (0.7 kg/cm2), spray volume=0.5 mL. The studies were conducted at […] 25±1 C in incubator cabinets with 60±5% RH. Survey the survival aphids after 48 hrs and calculate the death rates.

wheat powdery mildew = assay: protectant activity in vivo against wheat powdery mildew; details: for control effect against wheat powdery mildew (%): protectant activity
cucumber downy mildew = assay: protectant activity in vivo against cucumber downy mildew; details: for pest or weed control at 100 ppm: read-out: protectant activity against cucumber downy mildew in vivo, 100 ppm

Row | Structure (SMILES) | control (test results against green peach aphid) ([1]; 600 ppm) | control against carmine spider mite (carmine spider mite; 600 ppm) | protectant activity against corn rust in vivo (corn rust; 400 ppm) | protectant activity against wheat powdery mildew in vivo (wheat powdery mildew; 400 ppm) | control (test results against green peach aphid) ([1]; 10 ppm) | control (test results against green peach aphid) ([1]; 100 ppm) | control against carmine spider mite (carmine spider mite; 100 ppm) | protectant activity against corn rust in vivo (corn rust; 100 ppm) | protectant activity against wheat powdery mildew in vivo (wheat powdery mildew; 100 ppm) | protectant activity against cucumber downy mildew in vivo (cucumber downy mildew; 400 ppm) | control (test results against armyworm) (armyworm; 600 ppm, mortality after 72 h) | other results
1 | CCc1c(Cl)c(NCCc2ccc(Oc3ccc(C(F)(F)F)cc3)cc2)nc[n+]1CC(=O)c1ccccc1.[Br-] [CK5, reference compound] |  |  |  |  |  |  |  |  |  |  |  | Insecticidal activity against armyworm (%) (armyworm; 10 mg/L): 0%; Insecticidal activity against armyworm (%) (armyworm; 100 mg/L): 56%; Insecticidal activity against armyworm (%) (armyworm; 600 mg/L): 100%; control effect against corn rust (%) (corn rust; 6.25 mg/L): 30%; control effect against corn rust (%) (corn rust; 25 mg/L): 40%; control effect against corn rust (%) (corn rust; 100 mg/L): 98%; control effect against corn rust (%) (corn rust; 400 mg/L): 95%
2 | CCc1ncnc(NCc2ccc(Oc3ncc(Cl)cc3Cl)cc2)c1Cl [CK64, reference compound] |  |  |  |  |  |  |  |  |  |  |  | pest or weed control at 600 µg/mL (armyworm; 72 h, 600 mg/L, read-out: Insecticidal activity against armyworm (%)): 0%; pest or weed control at 600 µg/mL (carmine spider mite; Tetranychus cinnabarinus, 72 h, 600 mg/L, contrastive test, read-out: Insecticidal activity against carmine spider mite (% )): 56%
3 | Cc1ncnc(NCCc2ccc(Oc3ncccc3C(F)(F)F)cc2)c1Cl [Compound I-929] | 100% | 100% | 100% | 100% |  |  |  |  |  |  |  | 
4 | CCc1ncnc(NCCc2ccc(Oc3ncccc3C(F)(F)F)cc2)c1Cl [Compound I-987] | 100% | 100% | 100% | 100% | 100% | 100% | 100% | 100% | 100% | 100% |  | Insecticidal activity against carmine spider mite (% ) (carmine spider mite; 10 mg/L, contrastive test): 80%; Insecticidal activity against carmine spider mite (% ) (carmine spider mite; 100 mg/L, contrastive test): 100%; Insecticidal activity against carmine spider mite (% ) (carmine spider mite; 600 mg/L, contrastive test): 100%; protectant activity against cucumber downy mildew in vivo (cucumber downy mildew; 100 ppm): 100%
5 | CCc1ncnc(NCCc2ccc(Oc3ncc(C(F)(F)F)cc3Cl)c(Cl)c2)c1Cl [Compound I-1472] | 100% | 100% | 100% | 100% | 100% | 100% |  |  | 100% |  | 100% | 
6 | Cc1ncnc(NCCc2ccc(Oc3ccc(C(F)(F)F)cn3)cc2)c1Br [Compound I-1762] | 100% | 100% | 100% | 100% | 100% | 100% | 100% |  |  | 100% |  | control (test results against green peach aphid) ([1]; 5 ppm): 100%
7 | FC(F)(F)c1ccc(Oc2ccc(CCNc3ncnc(C(F)(F)F)c3Cl)cc2)nc1 [Compound I-2748] |  |  |  |  |  |  |  |  |  |  |  | pest or weed control at 600 ppm (armyworm; 72 h, 600 ppm, mortality after 72 h): 80 to 99%; pest or weed control at 600 ppm ([1]; Myzus persicae, foliar, 48 h, 600 ppm): 100%; pest or weed control at 400 ppm (corn rust; Zea mays, 168 h, read-out: protectant activity against corn rust in vivo, 400 ppm): 80 to 99%; pest or weed control at 400 ppm (wheat powdery mildew; Triticum aestivum, 168 h, read-out: protectant activity against wheat powdery mildew in vivo, 400 ppm): 80 to 99%; pest or weed control at 50 ppm (cucumber downy mildew; Cucumis sativus, 168 h, read-out: protectant activity against cucumber downy mildew in vivo, 50 ppm): 100%; pest or weed control at 100 ppm (cucumber downy mildew; Cucumis sativus, 168 h): 100%; pest or weed control at 400 ppm (cucumber downy mildew; Cucumis sativus, 168 h, read-out: protectant activity against cucumber downy mildew in vivo, 400 ppm): 100%
8 | Cc1ncnc(NCCc2ccc(Oc3ccc(C(F)(F)F)cn3)cc2)c1Cl.Cl [Compound I-6730] | 100% | 100% | 100% | 100% |  |  |  |  | 100% | 100% |  | protectant activity against wheat powdery mildew in vivo (wheat powdery mildew; 25 ppm): 100%; pest or weed control at 6.25 ppm (wheat powdery mildew; Triticum aestivum, 168 h, read-out: protectant activity against wheat powdery mildew in vivo, 6.25 ppm): 80 to 99%; protectant activity against cucumber downy mildew in vivo (cucumber downy mildew; 25 ppm): 100%; protectant activity against cucumber downy mildew in vivo (cucumber downy mildew; 50 ppm): 100%; pest or weed control at 100 ppm (cucumber downy mildew; Cucumis sativus, 168 h): 100%
9 | CCc1ncnc(NCCc2ccc(Oc3ccc(C(F)(F)F)cn3)cc2)c1Cl [Compound I-6741] | 100% | 100% | 100% | 100% | 100% | 100% | 100% | 100% | 100% |  | 100% | control (test results against armyworm) (armyworm; 100 ppm, mortality after 72 h): 100%; control (test results against green peach aphid) ([1]; 5 ppm): 100%; Insecticidal activity against carmine spider mite (% ) (carmine spider mite; 10 mg/L, contrastive test): 85%; Insecticidal activity against carmine spider mite (% ) (carmine spider mite; 100 mg/L, contrastive test): 100%; Insecticidal activity against carmine spider mite (% ) (carmine spider mite; 600 mg/L, contrastive test): 100%
10 | Cc1ncnc(NCCc2ccc(Oc3ccc(Cl)cc3Cl)cc2)c1Cl [II-21] | 100% | 100% | 100% |  |  |  | 100% | 100% |  | 100% | 100% | protectant activity against cucumber downy mildew in vivo (cucumber downy mildew; 50 ppm): 100%; protectant activity against cucumber downy mildew in vivo (cucumber downy mildew; 100 ppm): 100%
11 | CCc1ncnc(NCCc2ccc(Oc3ccc(C(F)(F)F)cc3Cl)cc2)c1Cl [II-432] | 100% | 100% | 100% | 100% |  | 100% | 100% | 100% | 100% | 100% |  | Insecticidal activity against carmine spider mite (% ) (carmine spider mite; 10 mg/L, contrastive test): 76%; Insecticidal activity against carmine spider mite (% ) (carmine spider mite; 100 mg/L, contrastive test): 100%; Insecticidal activity against carmine spider mite (% ) (carmine spider mite; 600 mg/L, contrastive test): 100%; control effect against corn rust (%) (corn rust; 0.4 mg/L): 15%; control effect against corn rust (%) (corn rust; 1.6 mg/L): 75%; control effect against corn rust (%) (corn rust; 6.25 mg/L): 100%; control effect against corn rust (%) (corn rust; 25 mg/L): 100%; control effect against corn rust (%) (corn rust; 100 mg/L): 100%; control effect against corn rust (%) (corn rust; 400 mg/L): 100%; protectant activity against corn rust in vivo (corn rust; 6.25 ppm): 100%; protectant activity against corn rust in vivo (corn rust; 25 ppm): 100%; control effect against wheat powdery mildew (%) (wheat powdery mildew; 0.4 mg/L): 50%; control effect against wheat powdery mildew (%) (wheat powdery mildew; 1.6 mg/L): 80%; control effect against wheat powdery mildew (%) (wheat powdery mildew; 6.25 mg/L): 100%; control effect against wheat powdery mildew (%) (wheat powdery mildew; 25 mg/L): 100%; control effect against wheat powdery mildew (%) (wheat powdery mildew; 100 mg/L): 100%; control effect against wheat powdery mildew (%) (wheat powdery mildew; 400 mg/L): 100%; protectant activity against wheat powdery mildew in vivo (wheat powdery mildew; 6.25 ppm): 100%; protectant activity against wheat powdery mildew in vivo (wheat powdery mildew; 25 ppm): 100%
12 | Cc1ncnc(NCCc2ccc(Oc3cccc(F)c3)c(Cl)c2)c1Cl [II-559] |  |  |  |  |  |  |  |  |  |  | 100% | 
